Patent publication US20040014772A1, “Compositions and methods for treating glomerular disorders” (priority 2000, published 2004)
“Also recorded” adds a separate entry of the source.

Experiments:
[1] = tested on: glomerular epithelial cells GEC; experiment: PAN induced catalytic iron release from GEC (bleomycin detectable iron); format: cell-based, rat; conditions: PAN 1.5 mM 1 h; preincubation CM 2 mM, PB 25 μM, RN 1 mM, PIP 0.2 mM, pyruvate 10 mM
Protocol: Iron capable of catalyzing free radical reactions was measured by bleomycin detectable iron assay as described by Gutteridge et al, 1981, Biochem. J. 199:263-265, Gutteridge et al, 1982, Biochem. J. 206:605-609, Baliga et al, 1993, Bioche. J. 291:901-905, Baliga et al, 1996, Kidney Int. 49:362-369, Baliga et al, Kidney Int. 53:394-401, Ueda et al, 1996, Kidney Int. 49:370-373, Baliga et al, 1998, Kidney Int. 54:1562-1569.
Confluent cell monolayer was washed three times with Chelex-treated HBSS to remove as much contaminating iron as possible. The GEC monolayer was then incubated in Chelex-treated HBSS with cytotoxic dose of PAN for a period time at 37° C. before substantial cell killing and after significant iron release occurs (1.5 mM, 60 min, based on a time course study on iron release induced by PAN, data not shown). The incubation medium was then collected for the measurement of catalytic iron using bleomycin detectable iron assay as mentioned above. To determine the effect of CYP inhibitors on the iron release, GEC monolayer was preincubated with CM (2 mM), RN (1 mM, as a control of CM) for 30 min or PB (25 uM) for 60 min in Chelex-treated HBSS at 37° C. After the incubation, the medium with CYP inhibitor was discarded and then the cell monolayers were washed twice with chelex-treated HBSS prior to the incubation of PAN.

[2] = tested on: CYP2B1; experiment: CYP2B1 content in GEC exposed to PAN (western blot); format: cell-based, rat; conditions: PAN 1.5 mM for 2 hr at 37° C.; CM 2 mM, PIP 0.2 mM, pyruvate 10 mM
Description: (§1) The microsome fraction obtained was subjected to SDS-page electrophoresis in 1 mm slab gels. The separated forms were transferred from gel to a nitrocellulose sheet using a Mini Trans-blot electroblotting unit. The primary antibodies were monoclonal anti-HO-1 (OSA-111, StressGen, Victoria, BC, Canada) and monoclonal anti-CYP2B1 (PM25, Oxford Biomedical Research, Oxford, Mich., USA). Subsequent to primary and secondary antibody (peroxidase-labeled) treatment, the blots were visualized by enhanced chemiluminescence method.

[3] = tested on: PAN-induced nephrotic syndrome; experiment: PAN-induced nephrotic syndrome: proteinuria and serum albumin; format: in vivo, rat; conditions: PAN-treated rats; for proteinuria: daily urine protein to day 7; for serum albumin: day 7
Protocol: Male Sprague-Dawley rats weighing 200-250 g were injected either saline or a single intravenous injection of PAN (Sigma, St. Louis) in a dose of 7.5 mg/100g BW (day 0) as described in Ueda et al, 19996, Kidney Intl. 49:370-373. Animals were housed in separate metabolic cages and allowed free access to rat chow (Purina). Daily urine protein excretion was determined and animals were sacrificed on day 7. Blood was obtained for the measurement of serum albumin and the evaluation of renal function as measured by blood urea nitrogen (BUN) and plasma creatinine. Cell fraction of the glomeruli was prepared for bleomycin detectable iron assay. The microsome fraction was utilized for the measurement of CYP content.
Two different general CYP inhibitors were used, cimetidine (CM) and piperonyl butoxide (PB). Cimetidine has imidazole and cyano groups that inhibit CYP by interacting with the heme moiety. […] To determine the effect of the CYP inhibitors in PAN- induced nephrotic syndrome, CM (120 mg/kg BW) was administered intraperitoneal 1 h prior to PAN injection and then twice a day. Piperonyl butoxide (PB) which yields a metabolite that binds to the heme moiety of CYP, was given intraperitoneal (400 mg/kg BW) 4h before PAN injection and then every other day.
PIP is believed to inhibit CYP2B1 by forming an inhibitory complex therewith. PIP was administered at a dose of 85 mg/kg of body weight (BW) by an intraperitoneal injection 16 hours prior to PAN injection and then once a day.

[4] = tested on: heme oxidase (HO-1); experiment: HO-1 induction in kidney of PAN-treated rats (immunohistochemistry, western blot, RT-PCR); format: in vivo, rat
Description: as §1
Kidney cortical sections were fixed in 10% buffered formalin for 6 hours and embedded in paraffin. After deparaffinization and antigen retrieval, the sections were immunolabeled and visualized according to an avidin-biotin complex (ABC) method. The primary antibody for detection of ferritin was polyclonal anti-Ferritin (L subunit) antibody (605022; Boehringer Mannheim Corp., Indianapolis, Ind., USA).
RNA was isolated from the kidney cortex using TRIzol Reagant (Gibco, BRL, Gaithersburg, Md., USA). Revers transcription of […] of total RNA was carried out using Moloney murine leukemia virus reverse transcriptase (Gibco, BRL). The resulting first-strand cDNA preparations were used as templates for PCR. HO-1 primer described by Paschen et al (Neurosci Lett, 1994, 180:5-8.) were purchased from Gibco, BRL. The sense primer was: %′-[…]-3′, and the antisense 5′-[…]-3′. […]

[5] = tested on: microsomal CYP isolated from GEC; experiment: H2O2 generation and catalytic iron release from microsomes isolated from GEC; format: biochemical, rat; set-up: H2O2 generation from GEC microsomal fraction: dose or concentration left out as unconfirmed
Protocol: The generation of H2O2 and catalytic iron from microsomal CYP isolated from GEC was also analyzed.

Compound | bleomycin detectable (catalytic) iron release from GEC [1] | CYP2B1 content in GEC [2] | proteinuria [3] | serum albumin [3] | HO-1 induction in the glomeruli and tubules ([4]; PAN-treated rats) | HO-1 mRNA expression in the kidney ([4]; RT-PCR vs GAPDH, one hour to day 4 after PAN) | H2O2 generation from GEC microsomal fraction ([5]; PAN) | catalytic iron release from GEC microsomal fraction ([5]; PAN 91.5 mM) as printed) | proteinuria ([3]; listed as C<)
CN(C)c1ncnc2c1ncn2[C@@H]1O[C@H](CO)[C@@H](N)[C@H]1O [PAN, puromycin aminonucleoside] | significant increase | significant reduction | significant proteinuria on the fourth day; also recorded: nephrotic range proteinuria | markedly decreased; also recorded: significant decrease | marked induction | significantly increase | H2O2 generation in a time dependent fashion | marked increase | 
CN/C(=N/CCSCc1nc[nH]c1C)NC#N [CM, cimetidine] | drastically prevents the increase; also recorded: prevented the increase | preserved | substantial protection | prevented |  |  |  |  | significant protection
